In the kinase profiling compilation of Christmann-Franck et al. (2016):

Columns and labels:
Test in all cases: split-luciferase competition binding
AKT1 (human) = AKT1 (human) (UniProt P31749); settings: compound 10.0 µM
AKT2 (human) = AKT2 (human) (UniProt P31751); settings: compound 10.0 µM
AKT3 (human) = AKT3 (human) (UniProt Q9Y243); settings: compound 10.0 µM
AURKA (human) = AURKA (human) (UniProt O14965); settings: compound 10.0 µM
AURKB (human) = AURKB (human) (UniProt Q96GD4); settings: compound 10.0 µM
AURKC (human) = AURKC (human) (UniProt Q9UQB9); settings: compound 10.0 µM
DMPK (human) = DMPK (human) (UniProt Q09013); settings: compound 10.0 µM
PDPK1 (human) = PDPK1 (human) (UniProt O15530); settings: compound 10.0 µM
PKN1 (human) = PKN1 (human) (UniProt Q16512); settings: compound 10.0 µM
PRKACA (mouse) = settings: compound 10.0 µM; accession and sequence are those of the human protein
PRKACB (human) = PRKACB (human) (UniProt P22694); settings: compound 10.0 µM
PRKCD (human) = PRKCD (human) (UniProt Q05655); settings: compound 10.0 µM
PRKCE (human) = PRKCE (human) (UniProt Q02156); settings: compound 10.0 µM
PRKCG (human) = PRKCG (human) (UniProt P05129); settings: compound 10.0 µM
PRKCH (human) = PRKCH (human) (UniProt P24723); settings: compound 10.0 µM
PRKCI (human) = PRKCI (human) (UniProt P41743); settings: compound 10.0 µM
PRKCQ (human) = PRKCQ (human) (UniProt Q04759); settings: compound 10.0 µM
PRKX (human) = PRKX (human) (UniProt P51817); settings: compound 10.0 µM
RPS6KA1 KD1 (human) = RPS6KA1 KD1 (human) (UniProt Q15418); settings: compound 10.0 µM
RPS6KA2 KD1 (human) = RPS6KA2 KD1 (human) (UniProt Q15349); settings: compound 10.0 µM
RPS6KA3 KD1 (human) = RPS6KA3 KD1 (human) (UniProt P51812); settings: compound 10.0 µM
RPS6KA4 KD1 (human) = RPS6KA4 KD1 (human) (UniProt O75676); settings: compound 10.0 µM
RPS6KA5 KD1 (human) = RPS6KA5 KD1 (human) (UniProt O75582); settings: compound 10.0 µM
RPS6KA6 KD1 (human) = RPS6KA6 KD1 (human) (UniProt Q9UK32); settings: compound 10.0 µM
SGK2 (human) = SGK2 (human) (UniProt Q9HBY8); settings: compound 10.0 µM
SGK3 (human) = SGK3 (human) (UniProt Q96BR1); settings: compound 10.0 µM
STK32B (human) = STK32B (human) (UniProt Q9NY57); settings: compound 10.0 µM

RPS6KA6 KD1 (human), sequence (Q9UK32 whole entry, looked up): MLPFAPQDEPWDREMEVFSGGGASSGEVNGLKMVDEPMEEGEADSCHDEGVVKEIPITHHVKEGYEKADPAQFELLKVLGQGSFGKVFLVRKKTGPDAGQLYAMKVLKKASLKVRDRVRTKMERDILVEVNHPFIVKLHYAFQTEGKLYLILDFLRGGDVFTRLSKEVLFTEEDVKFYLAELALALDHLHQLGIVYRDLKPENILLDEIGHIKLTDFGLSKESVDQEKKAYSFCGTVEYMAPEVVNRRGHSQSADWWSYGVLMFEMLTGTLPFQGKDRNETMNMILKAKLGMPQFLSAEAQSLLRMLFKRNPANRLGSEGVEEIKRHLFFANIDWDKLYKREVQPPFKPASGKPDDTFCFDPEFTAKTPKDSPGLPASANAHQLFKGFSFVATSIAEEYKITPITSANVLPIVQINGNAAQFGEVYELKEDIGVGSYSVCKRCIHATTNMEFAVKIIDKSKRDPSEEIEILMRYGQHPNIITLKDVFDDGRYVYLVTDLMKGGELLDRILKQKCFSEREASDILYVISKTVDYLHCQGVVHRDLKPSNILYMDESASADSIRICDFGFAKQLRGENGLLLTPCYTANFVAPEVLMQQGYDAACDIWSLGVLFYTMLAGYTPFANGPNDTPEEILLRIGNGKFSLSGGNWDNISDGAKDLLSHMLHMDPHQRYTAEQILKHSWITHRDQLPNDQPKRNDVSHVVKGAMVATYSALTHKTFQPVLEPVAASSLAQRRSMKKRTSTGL
SGK2 (human), sequence (Q9HBY8 whole entry, looked up): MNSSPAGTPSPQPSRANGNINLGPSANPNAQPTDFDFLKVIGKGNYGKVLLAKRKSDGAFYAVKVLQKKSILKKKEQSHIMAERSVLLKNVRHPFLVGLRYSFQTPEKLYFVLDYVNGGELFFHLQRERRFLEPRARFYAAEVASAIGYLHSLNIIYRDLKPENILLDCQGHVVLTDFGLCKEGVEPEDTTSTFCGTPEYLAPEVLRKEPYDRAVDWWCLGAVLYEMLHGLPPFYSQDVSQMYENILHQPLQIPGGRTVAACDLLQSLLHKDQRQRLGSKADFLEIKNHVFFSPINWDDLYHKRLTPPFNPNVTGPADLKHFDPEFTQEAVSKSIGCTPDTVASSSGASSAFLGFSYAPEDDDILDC
RPS6KA3 KD1 (human), sequence (P51812 whole entry, looked up): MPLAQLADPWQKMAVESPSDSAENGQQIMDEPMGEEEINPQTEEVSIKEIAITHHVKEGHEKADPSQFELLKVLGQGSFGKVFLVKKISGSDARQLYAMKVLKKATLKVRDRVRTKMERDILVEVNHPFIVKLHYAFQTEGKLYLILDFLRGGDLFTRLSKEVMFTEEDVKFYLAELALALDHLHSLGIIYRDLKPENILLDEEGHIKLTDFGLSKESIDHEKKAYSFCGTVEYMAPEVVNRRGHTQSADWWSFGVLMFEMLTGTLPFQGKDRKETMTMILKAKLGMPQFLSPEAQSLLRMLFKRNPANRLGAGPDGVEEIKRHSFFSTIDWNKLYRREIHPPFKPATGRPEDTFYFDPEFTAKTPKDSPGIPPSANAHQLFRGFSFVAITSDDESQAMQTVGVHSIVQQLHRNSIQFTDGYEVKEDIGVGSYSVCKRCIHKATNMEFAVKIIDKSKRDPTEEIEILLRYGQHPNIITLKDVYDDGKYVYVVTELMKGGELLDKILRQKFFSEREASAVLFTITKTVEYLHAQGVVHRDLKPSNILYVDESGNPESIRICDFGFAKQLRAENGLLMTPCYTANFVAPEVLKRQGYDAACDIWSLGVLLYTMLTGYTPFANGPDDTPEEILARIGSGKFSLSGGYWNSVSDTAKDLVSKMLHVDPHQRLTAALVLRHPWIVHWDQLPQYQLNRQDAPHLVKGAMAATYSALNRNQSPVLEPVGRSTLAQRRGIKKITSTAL
AKT3 (human), sequence (Q9Y243 whole entry, looked up): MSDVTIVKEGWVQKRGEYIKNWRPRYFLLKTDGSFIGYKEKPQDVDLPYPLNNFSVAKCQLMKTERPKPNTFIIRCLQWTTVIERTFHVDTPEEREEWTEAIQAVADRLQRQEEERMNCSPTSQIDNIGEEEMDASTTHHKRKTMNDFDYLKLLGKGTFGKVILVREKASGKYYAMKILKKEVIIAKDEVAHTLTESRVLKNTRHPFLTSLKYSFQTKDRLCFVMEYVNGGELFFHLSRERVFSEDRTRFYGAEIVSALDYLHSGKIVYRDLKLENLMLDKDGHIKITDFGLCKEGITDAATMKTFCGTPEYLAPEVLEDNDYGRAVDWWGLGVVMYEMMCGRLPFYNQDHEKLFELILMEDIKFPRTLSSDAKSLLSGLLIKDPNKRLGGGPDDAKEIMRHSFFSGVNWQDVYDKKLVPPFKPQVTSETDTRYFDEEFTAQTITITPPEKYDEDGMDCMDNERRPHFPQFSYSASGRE
PRKCE (human), sequence (Q02156 whole entry, looked up): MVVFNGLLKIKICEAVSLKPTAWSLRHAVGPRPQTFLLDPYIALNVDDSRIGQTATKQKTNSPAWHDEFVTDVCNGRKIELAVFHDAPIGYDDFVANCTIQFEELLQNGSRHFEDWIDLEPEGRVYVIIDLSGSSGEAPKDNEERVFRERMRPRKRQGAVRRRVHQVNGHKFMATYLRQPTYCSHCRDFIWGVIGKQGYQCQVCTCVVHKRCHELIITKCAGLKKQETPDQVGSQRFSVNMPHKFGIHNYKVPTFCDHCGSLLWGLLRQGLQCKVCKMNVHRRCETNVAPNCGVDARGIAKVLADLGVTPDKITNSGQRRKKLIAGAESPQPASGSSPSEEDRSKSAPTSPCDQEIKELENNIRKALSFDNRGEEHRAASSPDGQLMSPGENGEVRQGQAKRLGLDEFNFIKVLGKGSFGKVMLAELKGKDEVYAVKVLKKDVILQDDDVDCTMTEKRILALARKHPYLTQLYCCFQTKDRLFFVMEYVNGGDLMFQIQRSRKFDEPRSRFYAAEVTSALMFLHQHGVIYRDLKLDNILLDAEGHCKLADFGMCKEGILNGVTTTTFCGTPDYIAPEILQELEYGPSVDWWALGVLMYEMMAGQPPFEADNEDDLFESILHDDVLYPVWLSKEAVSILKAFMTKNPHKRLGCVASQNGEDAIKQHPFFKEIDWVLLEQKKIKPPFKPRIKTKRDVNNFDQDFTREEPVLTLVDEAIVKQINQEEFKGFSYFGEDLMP
AURKB (human), sequence (Q96GD4 whole entry, looked up): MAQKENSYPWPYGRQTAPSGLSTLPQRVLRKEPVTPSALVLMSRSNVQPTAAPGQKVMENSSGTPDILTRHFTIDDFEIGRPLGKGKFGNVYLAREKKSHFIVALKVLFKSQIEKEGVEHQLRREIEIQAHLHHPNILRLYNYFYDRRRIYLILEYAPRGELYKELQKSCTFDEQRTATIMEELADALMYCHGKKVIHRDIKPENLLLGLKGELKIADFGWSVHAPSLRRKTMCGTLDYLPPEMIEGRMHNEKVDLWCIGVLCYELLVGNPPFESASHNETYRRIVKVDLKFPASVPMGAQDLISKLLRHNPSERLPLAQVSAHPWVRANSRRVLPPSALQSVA
AURKC (human), sequence (Q9UQB9 whole entry, looked up): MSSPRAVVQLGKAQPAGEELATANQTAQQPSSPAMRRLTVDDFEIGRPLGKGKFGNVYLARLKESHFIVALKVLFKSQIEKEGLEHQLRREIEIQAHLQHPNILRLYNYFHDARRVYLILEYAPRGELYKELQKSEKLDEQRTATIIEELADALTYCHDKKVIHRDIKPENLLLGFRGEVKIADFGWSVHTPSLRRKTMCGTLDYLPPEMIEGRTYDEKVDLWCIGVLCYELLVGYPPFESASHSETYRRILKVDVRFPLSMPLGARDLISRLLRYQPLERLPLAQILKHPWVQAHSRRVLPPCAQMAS
DMPK (human), sequence (Q09013 whole entry, looked up): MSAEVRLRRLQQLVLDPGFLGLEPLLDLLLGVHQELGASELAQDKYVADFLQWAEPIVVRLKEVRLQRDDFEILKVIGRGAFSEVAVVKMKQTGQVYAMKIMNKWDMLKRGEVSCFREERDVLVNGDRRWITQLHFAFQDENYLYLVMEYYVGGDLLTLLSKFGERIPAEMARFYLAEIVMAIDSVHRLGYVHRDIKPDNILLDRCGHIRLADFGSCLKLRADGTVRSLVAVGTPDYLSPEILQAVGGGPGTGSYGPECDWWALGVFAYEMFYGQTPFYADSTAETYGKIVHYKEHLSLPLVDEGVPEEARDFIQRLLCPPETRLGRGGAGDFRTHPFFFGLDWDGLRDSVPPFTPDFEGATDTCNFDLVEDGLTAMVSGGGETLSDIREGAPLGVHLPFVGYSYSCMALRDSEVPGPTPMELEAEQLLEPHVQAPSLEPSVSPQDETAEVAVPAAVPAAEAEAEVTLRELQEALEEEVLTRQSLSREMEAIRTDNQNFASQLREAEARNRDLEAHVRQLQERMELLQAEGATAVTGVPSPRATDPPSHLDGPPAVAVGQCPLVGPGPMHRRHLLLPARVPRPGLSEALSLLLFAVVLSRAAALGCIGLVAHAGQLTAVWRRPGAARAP
SGK3 (human), sequence (Q96BR1 whole entry, looked up): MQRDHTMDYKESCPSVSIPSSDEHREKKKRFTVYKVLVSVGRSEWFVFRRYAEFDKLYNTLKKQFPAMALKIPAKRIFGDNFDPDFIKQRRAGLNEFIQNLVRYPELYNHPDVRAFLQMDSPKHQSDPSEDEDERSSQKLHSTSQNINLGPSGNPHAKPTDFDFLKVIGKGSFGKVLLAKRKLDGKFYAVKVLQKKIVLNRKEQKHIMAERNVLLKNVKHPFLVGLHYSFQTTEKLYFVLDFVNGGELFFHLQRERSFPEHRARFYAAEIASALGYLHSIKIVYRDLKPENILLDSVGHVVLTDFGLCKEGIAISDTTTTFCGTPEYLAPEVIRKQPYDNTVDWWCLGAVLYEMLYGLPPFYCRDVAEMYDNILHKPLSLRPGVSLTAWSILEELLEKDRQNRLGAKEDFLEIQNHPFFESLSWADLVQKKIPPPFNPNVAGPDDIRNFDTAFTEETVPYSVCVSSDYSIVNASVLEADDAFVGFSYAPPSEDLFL

Row | Compound | inhibition (AKT1 (human)) [%] | inhibition (AKT2 (human)) [%] | inhibition (AKT3 (human)) [%] | inhibition (AURKA (human)) [%] | inhibition (AURKB (human)) [%] | inhibition (AURKC (human)) [%] | inhibition (DMPK (human)) [%] | inhibition (PDPK1 (human)) [%] | inhibition (PKN1 (human)) [%] | inhibition (PRKACA (mouse)) [%] | inhibition (PRKACB (human)) [%] | inhibition (PRKCD (human)) [%] | inhibition (PRKCE (human)) [%] | inhibition (PRKCG (human)) [%] | inhibition (PRKCH (human)) [%] | inhibition (PRKCI (human)) [%] | inhibition (PRKCQ (human)) [%] | inhibition (PRKX (human)) [%] | inhibition (RPS6KA1 KD1 (human)) [%] | inhibition (RPS6KA2 KD1 (human)) [%] | also measured
1 | COc1cc2ncnc(Nc3ccc(Cl)cc3F)c2cc1OC | 0 | 0 | 0 | 7 | 9 | 18 | 0 | 0 | 1 | 2 | 4 | 0 | 2 | 2 | 11 | 0 | 7 | 7 | 0 | 0 | inhibition (RPS6KA3 KD1 (human)): 8%; inhibition (RPS6KA4 KD1 (human)): 2%; inhibition (RPS6KA5 KD1 (human)): 0%; inhibition (RPS6KA6 KD1 (human)): 0%; inhibition (SGK2 (human)): 7%; inhibition (SGK3 (human)): 7%; inhibition (STK32B (human)): 14%
2 | CC[C@@H](CO)Nc1nc(NCc2ccccc2)c2ncn(C(C)C)c2n1 | 0 | 0 | 0 | 0 | 0 | 0 | 0 | 0 | 0 | 0 | 0 | 2 | 0 | 0 | 0 | 0 | 0 | 0 | 20 | 0 | inhibition (RPS6KA3 KD1 (human)): 0%; inhibition (RPS6KA4 KD1 (human)): 0%; inhibition (RPS6KA5 KD1 (human)): 0%; inhibition (RPS6KA6 KD1 (human)): 0%; inhibition (SGK2 (human)): 0%; inhibition (SGK3 (human)): 0%; inhibition (STK32B (human)): 0%

The next lines start with results.

Row | inhibition (AKT1 (human)) [%] | inhibition (AKT2 (human)) [%] | inhibition (AKT3 (human)) [%] | inhibition (AURKA (human)) [%] | inhibition (AURKB (human)) [%] | inhibition (AURKC (human)) [%] | inhibition (DMPK (human)) [%] | inhibition (PDPK1 (human)) [%] | inhibition (PKN1 (human)) [%] | inhibition (PRKACA (mouse)) [%] | inhibition (PRKACB (human)) [%] | inhibition (PRKCD (human)) [%] | inhibition (PRKCE (human)) [%] | inhibition (PRKCG (human)) [%] | inhibition (PRKCH (human)) [%] | inhibition (PRKCI (human)) [%] | inhibition (PRKCQ (human)) [%] | inhibition (PRKX (human)) [%] | inhibition (RPS6KA1 KD1 (human)) [%] | inhibition (RPS6KA2 KD1 (human)) [%] | Compound | also measured
3 | 0 | 0 | 0 | 3 | 0 | 8 | 0 | 0 | 0 | 7 | 0 | 1 | 0 | 0 | 0 | 0 | 0 | 0 | 0 | 0 | Cc1ccc(NC(=O)c2cccc(N(C)C)c2)cc1NC(=O)c1ccc(O)cc1 | inhibition (RPS6KA3 KD1 (human)): 0%; inhibition (RPS6KA4 KD1 (human)): 0%; inhibition (RPS6KA5 KD1 (human)): 0%; inhibition (RPS6KA6 KD1 (human)): 0%; inhibition (SGK2 (human)): 0%; inhibition (SGK3 (human)): 0%; inhibition (STK32B (human)): 0%
4 | 2 | 0 | 0 | 2 | 7 | 14 | 4 | 0 | 0 | 0 | 0 | 0 | 4 | 0 | 1 | 0 | 0 | 2 | 0 | 0 | Nc1ccc(-c2cccc3c(=O)cc(N4CCOCC4)oc23)cc1 | inhibition (RPS6KA3 KD1 (human)): 0%; inhibition (RPS6KA4 KD1 (human)): 3%; inhibition (RPS6KA5 KD1 (human)): 2%; inhibition (RPS6KA6 KD1 (human)): 0%; inhibition (SGK2 (human)): 0%; inhibition (SGK3 (human)): 0%; inhibition (STK32B (human)): 0%
5 | 0 | 0 | 0 | 0 | 14 | 16 | 6 | 0 | 0 | 5 | 0 | 0 | 0 | 0 | 0 | 0 | 0 | 1 | 0 | 0 | COc1ccc(Cl)cc1NC(=O)Nc1cc(C)nc2ccccc12 | inhibition (RPS6KA3 KD1 (human)): 0%; inhibition (RPS6KA4 KD1 (human)): 0%; inhibition (RPS6KA5 KD1 (human)): 3%; inhibition (RPS6KA6 KD1 (human)): 0%; inhibition (SGK2 (human)): 0%; inhibition (SGK3 (human)): 0%; inhibition (STK32B (human)): 0%
